Assay results taken from the NIST ThermoML archive (doi:10.1016/j.fluid.2014.10.043).
Numbers after ± are expanded uncertainties.

Columns and labels:
[1] = refractive index (Na D-line) (dimensionless); conditions: 293.2 K; 101.33 kPa; Liquid; Standard Abbe refractometry
[2] = 293.2 K; 101.33 kPa; Liquid; Vibrating tube method

Row | refractive index [1] | mass density [2] [kg/m3] | Structure (SMILES)
1 | 1.3918 ± 0.0006 | 879.18 ± 0.73 | CCCC(=O)OCC [ethyl butanoate]
2 | 1.428 ± 0.0005 | 825.95 ± 0.35 | CCCCCCCCO [octan-1-ol]
3 | 1.4125 ± 0.0005 | 877.15 ± 0.36 | CCCCC(=O)OCC [ethyl pentanoate]
4 | 1.4275 ± 0.0006 | 782.3 ± 0.61 | CCCCN(CCCC)CCCC [tributylamine]
5 | 1.4226 ± 0.0006 | 866.3 ± 0.72 | CCCCCCCCC(=O)OCC [ethyl nonanoate]

Continued, compound first:

Row | Structure (SMILES) | refractive index [1] | mass density [2] [kg/m3]
6 | CCOC(=O)CC(=O)OCC [diethyl 1,3-propanedioate] | 1.4135 ± 0.0006 | 1055.25 ± 0.98
7 | CCCC(=O)O [butanoic acid] | 1.3965 ± 0.0005 | 957.8 ± 0.37
8 | CC(=O)c1ccccc1 [acetophenone] | 1.5361 ± 0.0006 | 1027.9 ± 0.93
